Laboratory results reported in patent publication US6420409B1, “Benzimidazole derivatives” (Fujisawa Pharmaceutical Co., Ltd., priority 1997, dated 2002).

Tested on: db/db mice
Test: Test for Activity of Decreasing Plasma Glucose using db/db Mice
Type: in vivo
Settings: female db/db mice, dose of 10 mg/kg, mixed with powdered chow (0.01%), 14 days, difference between db/db and +/+ mouse groups defined as 100%
Source text: Test Example: Test for Activity of Decreasing Plasma Glucose using db/db Mice
1-(Isoquinolin-3-ylmethyl)-2-methyl-6-(1-pentanesulfonyl-carbamoyl)benzimidazole (13)
Five-week-old female mice [C57BL/KsJ-dbm db+/db+, C57BL/KsJ-dbm +m/+m (Jackson Laboratory) were purchased, and were kept for 2 to 3 weeks. Then, these mice were used in the test.
A test compound was mixed with a powdered chow (CE-2, made by Nippon Clea) using a mortar. The mixing ratio was 0.01%. The mixed chow was changed twice a week. The feed amount and the remaining amount were recorded, and the intake was calculated from the difference therebetween.
The female db/db mice were grouped according to the body weight, the plasma glucose and the plasma triglyceride concentrations. […] Plasma glucose, triglyceride, and insulin concentrations were measured on day 0 and day 14 as well as plasma glucose and triglyceride concentrations on day 7. The body weight was measured on day 0, day 7 and day 14. […]
The plasma glucose was measured by a glucose oxidase method (Glucose CII-Test Wako made by Wako Pure Chemical Industries, Ltd.) using from 10 to 15 μl of plasma. The plasma triglyceride concentration was measured by a GPO-p-chlorophenol method (Triglyceride G-Test Wako made by Wako Pure Chemical Industries, Ltd.) or a GPO-DAOS method (Triglyceride E-Test Wako) using from 10 to 15 μl of plasma. […]

**Q.** What does the source list for `CCCCCS(=O)(=O)NC(=O)c1ccc2nc(C)n(Cc3cc4ccccc4cn3)c2c1` [Compound 13, 1-(Isoquinolin-3-ylmethyl)-2-methyl-6-(1-pentane-sulfonylcarbamoyl)benzimidazole]?
**A.** plasma glucose decreasing activity: 44%; TG concentration-decreasing activity (plasma triglyceride): 77%
